Patent publication US20250161285A1, “BACTERIAL BIOFILM INHIBITORS” (THE RESEARCH INSTITUTE AT NATIONWIDE CHILDREN'S HOSPITAL, priority 2022, published 2025)
Where two headings read alike, the source gives them in different places.

What was measured:
[1] = system: S. Typhimurium ATCC 14028; assay: Murine model of chronic Salmonella gallbladder carriage, combination with ciprofloxacin; format: in vivo, 129X1/SvJ NRAMP+/+ mice; conditions: for reduction in bacterial burden in the gallbladder: 5 mg/kg/day compound + 1 mg/kg/day cipro I.P., 15 dpi
Procedure: FIGS. 5A-5F provide graphs showing Enumeration of Salmonella in the gallbladder, liver, and spleen of infected mice at 15 dpi. […] Dotted lines represent the limit of detection where applicable; significant differences among the bacterial burden of treatment groups were determined via one-way ANOVA with the Tukey correction for multiple comparisons; ns non-significant, * p<0.05, ** p<0.01, *** p<0.001, **** p<0.0001.
Murine model of chronic Salmonella gallbladder carriage and evaluation of compound therapeutic efficacy in combination with ciprofloxacin. A total of 46 adult 129X1/SvJ NRAMP^+/+ mice (The Jackson Laboratory, Bar Harbour, ME) were used in this study. […] Mice were randomly assigned to treatment groups in two separate experiments. […] Treatments were administered daily via I.P. injection from days 5-15 post-infection. On day 15 post-infection, mice were euthanized and gallbladders, livers, and spleens were removed and homogenized in a volume of 1 mL sterile PBS using a TissueLyser LT bead mill (Qiagen, Valencia, CA). Tissue homogenates were serially diluted in PBS, plated onto LB agar, and incubated at 37° C. for 16h in order to quantify bacterial burden via CFU enumeration.

[2] = system: S. Typhimurium ATCC 14028 (JSG210) biofilms; assay: Biofilm inhibition assay (crystal violet staining); format: cell-based, Salmonella enterica serovar Typhimurium; conditions: inhibition of S. Typhimurium biofilm formation, compound present 24 h, crystal violet OD570; mean ± standard deviation
Procedure: Inhibition of biofilm formation is assessed by growing bacteria in a 96-well plate in the absence (control) or presence of test compounds. After 24 hours, the wells are washed to remove planktonic bacteria, and the remaining surface attached bacteria (biofilm) are stained with crystal violet (CV). The wells are then washed again to remove excess CV, and the remaining CV is solubilized with a solution of acetic acid and then quantified by spectrophotometry at 570 nm. A dose response curve is then constructed from which an IC50 value is determined.
(§1) Salmonella biofilm growth and crystal violet staining. […] For biofilm assays, individual bacterial colonies were picked and used to inoculate LB broth for overnight liquid cultures, which were grown at 37° C. with aeration using a rotating drum. […] Biofilm plates were then submerged in dH2O to wash away any remaining non-adherent bacteria and heat fixed (1h, 60° C.). Biofilms were then stained with a 33% crystal violet solution (6 mL PBS, 3.3 mL crystal violet, 333 μL methanol, 333 μL isopropanol) for 5 min. and washed twice by submerging in dH2O before releasing the bound dye with 33% glacial acetic acid. Biofilm growth was then quantified by measuring the optical density of the solubilized dye at 570 nm using a spectrophotometer (Molecular Devices, SpectraMax M5).
(§2) Biofilm Inhibition and Dispersion Assays and IC50/EC50 Determination. […] Biofilms were then grown as described above for a total of 24 h prior to CV staining. […] Biofilms were then incubated for an additional 24 h in the presence of compounds prior to CV staining. IC50/EC50 values were calculated by plotting normalized compound activity (percent biofilm formed and percent remaining, respectively) as a function of log10 compound concentration and fitting a dose response curve (log[inhibitor] vs. normalized response, variable slope).

[3] = system: S. Typhimurium ATCC 14028 (JSG210) biofilms; assay: Biofilm dispersion assay on pre-formed biofilms (crystal violet staining); format: cell-based, Salmonella enterica serovar Typhimurium; conditions: 50% dispersion of biofilms established 24 h, then 24 h with compound, crystal violet OD570; mean ± standard deviation
Procedure: as §1, §2

[4] = system: S. Typhimurium ATCC 14028; conditions: cited from earlier work
[5] = 5 mg/kg/day 7d + 4 mg/kg/day cipro, I.P., days 5-15
[6] = 2 mg/kg/day cipro alone, I.P., days 5-15 post-infection

In the case of CN(Cc1ccsc1)CC1CCN(CCc2ccc(-c3ccccc3)cc2)CC1 [Compound 8j], the “reduction in bacterial burden in the gallbladder” value (“reduction in bacterial burden” below) ([1]; days 5-15 post-infection) is reported as 3.5-4 log-fold.
For CN(Cc1ccsc1)CC1CCN(CCc2ccc(Br)c(Br)c2)CC1 [Compound 7d], the “CFUs recovered in all organs (gallbladder, liver, spleen)” value [1, 5] was “neared the limit of detection”, the “gallbladder bacteria versus 4 mg/kg/day cipro alone” value [1, 5] was “additional significant reduction” and the “reduction in bacterial burden” value ([1]; days 5-15 post-infection) was 4.5-5 log-fold. For the same compound, the “reduction of bacterial burden in the gallbladder” value ([1]; compound with ciprofloxacin) was 4.5-5 logs.
In the case of CN(Cc1ccsc1)CC1CCN(CCc2ccccc2F)CC1 [Compound 1], the “reduction in bacterial burden” value ([1]; days 5-15 post-infection) is reported as roughly 2 log-fold, the IC50 [2] is reported as 5.7 µM and the EC50 [3] is reported as 829 µM. The “reduction in the bacterial burden in the gallbladder” value ([4]; compound 1 10 mg/kg/day + ciprofloxacin 1.0 mg/kg/day (Sandala et al., 2020)) was 3-4.5 log and the “reduction of bacterial burden in the gallbladder” value ([4]; compound 1 at 10 mg/kg/day, previous experiments (Sandala et al., 2020)) was “several logs”.
With O=C(O)c1cn(C2CC2)c2cc(N3CCNCC3)c(F)cc2c1=O [cipro, ciprofloxacin, reference compound] the “bacteria recovered from the liver and spleen” value [1, 6] was “reduce the number of bacteria recovered”, the “effect on bacterial burden within the gallbladder” value [1, 6] was “no statistically significant effect” and the “reduction of bacterial gallbladder burden” value ([1]; 4 mg/kg/day cipro alone, I.P., days 5-15 post-infection) was 3-4 logs.
In the case of CN(Cc1ccsc1)CC1CCN(CCc2cccc(Cl)c2Cl)CC1 [Compound 7b], the “reduction in bacterial burden” value ([1]; days 5-15 post-infection) is reported as roughly 1.5 log-fold.
Compound CN(Cc1ccc(Cl)c(Cl)c1)CC1CCN(CCc2ccc(Cl)c(Cl)c2)CC1 [Compound 3.2h] has an IC50 [2] of 0.96 µM and an EC50 [3] of 17 µM.
CN(Cc1ccsc1)CC1CCN(CCCc2ccccc2F)CC1 [Compound 6l] showed an IC50 [2] of 11.5 ± 2.7 µM and an EC50 [3] of 221 ± 17 µM.
For CN(Cc1ccsc1)CC1CCN(CCc2c(F)cccc2F)CC1 [Compound 6h], the IC50 [2] was 6.3 ± 0.6 µM and the EC50 [3] was 138 ± 18 µM.
For CC(C)c1ccc(CCN2CCC(CN(C)Cc3ccsc3)CC2)cc1 [Compound 8h], the IC50 [2] was 2.3 µM and the EC50 [3] was 123 ± 7 µM.
Compound CN(Cc1ccncc1)CC1CCN(CCc2ccccc2F)CC1 [Compound 3.8c] has an IC50 [2] greater than 20 µM and an EC50 [3] greater than 50 µM.
